Laboratory results reported in patent US8940742B2, “Heterocyclic compounds and uses thereof” (Infinity Pharmaceuticals, Inc., priority 2012, dated 2015).

How the values were obtained:
RAJI p110 δ = RAJI p110 δ (Homo sapiens, UniProt O00329); experiment: RAJI p110 δ cellular assay (phospho-AKT);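 note: potency based on lowered phosphorylated AKT in RAJI cells, as a readout of PI3K-δ dependent B-cell receptor signaling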
Description: (a) PI3K-δ Selective Assay
Reduction of phospho-AKT is indicative of compounds that may inhibit B-cell proliferation and function in certain diseases.

Raw264.7 p110 γ = target: T1, Raw264.7 p110 γ (Mus musculus, UniProt Q9JHG7); experiment: Raw264.7 p110 γ cellular assay (phospho-AKT); format: cell-based; settings: serum-starved RAW264.7 cells stimulated with C5a
T1 construct: reduction of phospho-AKT in stimulated RAW 264.7 cells; endogenous in cells; host or cells: RAW264.7 macrophages
Description: (b) PI3K-γ Selective Assay
Briefly, serum-starved PAW264.7 cells are stimulated with a known GPCR agonist C5a. […] Cells can be treated with test compounds prior to, simultaneously with, or subsequent to the stimulation by C5a. RAW 264.7 cells respond to the complement component fragment C5a through activation of the C5a receptor, and the C5a receptor activates macrophages and induces cell migration.

PI3K γ = target: T2, PI3K γ (Homo sapiens, UniProt P48736); experiment: PI3-Kinase Promega ADP-Glo Max assay; format: biochemical; settings: 40 nM kinase, 3 mM ATP, 500 uM diC8-PtdInsP
T2 construct: purchased Millipore
T2 sequence (P48736 whole entry): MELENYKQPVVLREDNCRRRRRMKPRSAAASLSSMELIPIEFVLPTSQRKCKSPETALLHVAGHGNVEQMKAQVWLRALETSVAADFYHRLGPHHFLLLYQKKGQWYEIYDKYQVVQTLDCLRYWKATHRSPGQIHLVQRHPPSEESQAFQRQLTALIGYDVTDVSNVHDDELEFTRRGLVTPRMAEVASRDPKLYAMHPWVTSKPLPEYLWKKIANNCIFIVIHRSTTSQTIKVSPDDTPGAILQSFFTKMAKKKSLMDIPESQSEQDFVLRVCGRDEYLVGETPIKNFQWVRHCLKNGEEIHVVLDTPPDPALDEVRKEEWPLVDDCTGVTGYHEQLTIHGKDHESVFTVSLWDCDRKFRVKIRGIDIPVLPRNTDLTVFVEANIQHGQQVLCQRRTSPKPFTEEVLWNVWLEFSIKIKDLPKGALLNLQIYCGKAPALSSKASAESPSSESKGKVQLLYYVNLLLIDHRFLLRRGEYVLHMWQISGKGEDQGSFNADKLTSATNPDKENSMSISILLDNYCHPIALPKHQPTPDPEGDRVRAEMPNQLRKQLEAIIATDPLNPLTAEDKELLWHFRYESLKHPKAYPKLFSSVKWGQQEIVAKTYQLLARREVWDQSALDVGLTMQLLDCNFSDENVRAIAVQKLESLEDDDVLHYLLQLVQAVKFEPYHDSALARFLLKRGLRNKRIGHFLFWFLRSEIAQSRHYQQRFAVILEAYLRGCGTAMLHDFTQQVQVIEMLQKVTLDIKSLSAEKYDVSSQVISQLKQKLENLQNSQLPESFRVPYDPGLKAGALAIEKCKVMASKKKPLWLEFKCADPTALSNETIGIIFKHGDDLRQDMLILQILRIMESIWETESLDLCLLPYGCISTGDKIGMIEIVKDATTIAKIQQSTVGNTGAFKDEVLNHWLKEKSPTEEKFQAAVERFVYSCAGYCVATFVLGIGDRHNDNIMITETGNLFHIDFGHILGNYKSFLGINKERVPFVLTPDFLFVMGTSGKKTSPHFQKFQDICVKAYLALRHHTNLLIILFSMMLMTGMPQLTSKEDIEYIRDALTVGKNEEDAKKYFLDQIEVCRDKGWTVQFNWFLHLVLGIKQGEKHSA
Procedure, shortened: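 Human class I PI3K reactions ran 2 hours at room temperature, followed by stop solution (40 min) and detection mix (1 hour) before luminescence reading.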

PI3K δ = target: T3, PI3K δ (Homo sapiens, UniProt O00329); experiment: PI3-Kinase Promega ADP-Glo Max assay; format: biochemical; settings: 20 nM kinase, 3 mM ATP, 500 uM diC8-PtdInsP
T3 construct: purchased Millipore
T3 sequence (O00329 whole entry): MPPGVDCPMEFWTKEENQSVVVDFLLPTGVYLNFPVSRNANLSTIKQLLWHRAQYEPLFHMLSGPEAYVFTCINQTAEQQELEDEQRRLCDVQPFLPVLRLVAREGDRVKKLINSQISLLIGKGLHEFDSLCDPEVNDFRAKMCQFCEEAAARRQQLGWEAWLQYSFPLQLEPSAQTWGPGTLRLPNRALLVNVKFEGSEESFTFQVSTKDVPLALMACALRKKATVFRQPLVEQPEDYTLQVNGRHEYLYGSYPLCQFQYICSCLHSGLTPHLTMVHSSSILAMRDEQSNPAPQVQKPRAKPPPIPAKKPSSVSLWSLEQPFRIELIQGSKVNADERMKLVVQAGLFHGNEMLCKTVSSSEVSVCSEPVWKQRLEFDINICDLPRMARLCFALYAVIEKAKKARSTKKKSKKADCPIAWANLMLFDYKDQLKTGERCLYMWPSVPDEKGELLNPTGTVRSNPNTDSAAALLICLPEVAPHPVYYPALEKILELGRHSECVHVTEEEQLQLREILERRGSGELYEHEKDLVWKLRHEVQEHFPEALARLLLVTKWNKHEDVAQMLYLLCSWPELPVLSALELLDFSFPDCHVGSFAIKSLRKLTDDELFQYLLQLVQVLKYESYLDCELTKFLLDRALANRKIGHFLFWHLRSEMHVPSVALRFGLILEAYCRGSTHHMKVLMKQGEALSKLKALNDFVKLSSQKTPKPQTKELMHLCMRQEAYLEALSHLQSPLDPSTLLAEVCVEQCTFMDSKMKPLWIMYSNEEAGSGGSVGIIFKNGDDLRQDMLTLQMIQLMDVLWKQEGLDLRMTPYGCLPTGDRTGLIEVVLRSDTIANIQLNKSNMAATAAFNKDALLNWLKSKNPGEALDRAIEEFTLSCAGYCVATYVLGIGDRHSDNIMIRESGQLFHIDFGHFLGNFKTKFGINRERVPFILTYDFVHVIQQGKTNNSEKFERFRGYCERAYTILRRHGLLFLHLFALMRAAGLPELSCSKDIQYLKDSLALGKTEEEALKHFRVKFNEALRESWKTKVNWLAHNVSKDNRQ
T3 sequence (P27986 whole entry partner): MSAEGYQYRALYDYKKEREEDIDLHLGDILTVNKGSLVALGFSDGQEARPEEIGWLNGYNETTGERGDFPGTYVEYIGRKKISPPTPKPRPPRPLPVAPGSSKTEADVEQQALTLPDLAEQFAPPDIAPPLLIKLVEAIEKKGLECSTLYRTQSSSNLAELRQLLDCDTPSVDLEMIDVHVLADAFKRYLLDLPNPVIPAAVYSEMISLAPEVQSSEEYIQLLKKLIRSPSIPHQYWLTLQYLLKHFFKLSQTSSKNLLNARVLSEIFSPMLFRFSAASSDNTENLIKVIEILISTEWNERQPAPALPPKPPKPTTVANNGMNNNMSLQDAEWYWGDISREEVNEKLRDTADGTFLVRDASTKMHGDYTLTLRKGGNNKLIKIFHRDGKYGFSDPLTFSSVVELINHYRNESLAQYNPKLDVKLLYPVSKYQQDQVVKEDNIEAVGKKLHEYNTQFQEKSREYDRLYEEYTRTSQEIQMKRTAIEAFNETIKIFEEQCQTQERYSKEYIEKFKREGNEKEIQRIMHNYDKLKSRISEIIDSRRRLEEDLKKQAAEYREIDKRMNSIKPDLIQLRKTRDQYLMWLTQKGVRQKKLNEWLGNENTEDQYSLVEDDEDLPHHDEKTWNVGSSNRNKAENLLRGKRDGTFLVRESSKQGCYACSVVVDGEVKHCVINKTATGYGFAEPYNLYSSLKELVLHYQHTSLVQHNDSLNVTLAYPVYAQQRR
Procedure, shortened: (§1)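 Human class I PI3K (20 nM α or δ, 40 nM β) pre-incubated 15 min with compound in HEPES pH 7.4 buffer with MgCl2, then reacted 2 h at room temperature with 3 mM ATP and 500 uM diC8-PtdInsP. ADP measured by ADP-Glo Max luminescence; % inhibition fitted to 4-parameter logistic for IC50.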

PI3K α = target: T4, PI3K α (Homo sapiens, UniProt P42336); experiment: PI3-Kinase Promega ADP-Glo Max assay; format: biochemical; settings: 20 nM kinase, 3 mM ATP, 500 uM diC8-PtdInsP
T4 construct: purchased Millipore
Procedure, shortened: as §1

PI3K β = target: T5, PI3K β (Homo sapiens, UniProt P42338); experiment: PI3-Kinase Promega ADP-Glo Max assay; format: biochemical; settings: 40 nM kinase, 3 mM ATP, 500 uM diC8-PtdInsP
T5 construct: purchased Millipore
T5 sequence (P42338 whole entry): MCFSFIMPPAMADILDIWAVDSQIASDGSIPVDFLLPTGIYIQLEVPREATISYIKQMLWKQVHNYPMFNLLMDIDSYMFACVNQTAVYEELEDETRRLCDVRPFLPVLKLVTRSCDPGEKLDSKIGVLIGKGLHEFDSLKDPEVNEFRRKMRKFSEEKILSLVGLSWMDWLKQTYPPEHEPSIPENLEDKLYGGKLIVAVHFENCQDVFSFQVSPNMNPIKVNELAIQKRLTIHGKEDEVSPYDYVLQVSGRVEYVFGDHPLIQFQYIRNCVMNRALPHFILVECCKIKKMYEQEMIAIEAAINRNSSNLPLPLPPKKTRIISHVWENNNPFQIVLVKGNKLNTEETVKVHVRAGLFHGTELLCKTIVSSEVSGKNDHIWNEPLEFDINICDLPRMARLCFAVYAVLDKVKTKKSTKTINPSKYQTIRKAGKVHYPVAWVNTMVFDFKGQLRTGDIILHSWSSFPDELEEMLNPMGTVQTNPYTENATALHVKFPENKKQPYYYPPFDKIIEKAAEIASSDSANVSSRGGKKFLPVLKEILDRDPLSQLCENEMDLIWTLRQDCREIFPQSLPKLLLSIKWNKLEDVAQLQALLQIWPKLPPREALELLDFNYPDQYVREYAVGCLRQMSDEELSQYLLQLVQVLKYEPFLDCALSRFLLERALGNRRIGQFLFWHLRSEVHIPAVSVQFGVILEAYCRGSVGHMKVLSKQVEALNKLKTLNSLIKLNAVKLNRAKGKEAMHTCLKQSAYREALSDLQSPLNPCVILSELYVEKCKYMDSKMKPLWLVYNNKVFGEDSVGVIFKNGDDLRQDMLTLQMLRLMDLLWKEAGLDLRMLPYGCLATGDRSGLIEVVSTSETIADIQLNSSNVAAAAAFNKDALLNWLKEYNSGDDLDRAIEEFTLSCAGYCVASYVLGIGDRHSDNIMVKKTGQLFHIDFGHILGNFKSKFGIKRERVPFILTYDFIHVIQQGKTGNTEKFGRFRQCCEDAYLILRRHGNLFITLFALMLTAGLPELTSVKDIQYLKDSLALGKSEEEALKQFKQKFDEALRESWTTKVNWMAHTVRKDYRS
T5 sequence (P27986 whole entry partner): as the sequence (P27986 whole entry partner) above
Procedure, shortened: as §1

Chain of RAJI p110 δ (O00329 whole entry): as the sequence (O00329 whole entry) above
Chain of RAJI p110 δ (P27986 whole entry partner): as the sequence (P27986 whole entry partner) above

SMILES	IC50 (RAJI p110 δ) [nM]	IC50 (Raw264.7 p110 γ) [nM]	IC50 (PI3K γ) [nM]	IC50 (PI3K δ) [nM]	IC50 (PI3K α) [µM]	IC50 (PI3K β) [nM]
C[C@H](NC(=O)c1c(N)nn2cccnc12)c1cc2cccc(Cl)c2c(=O)n1CC(O)CO (stereo partly drawn) [Compound 238]	< 100	< 100	100 to 1000	100 to 1000	1 to 10	< 100
CC(C)n1c([C@H](C)NC(=O)c2c(N)nn3cccnc23)cc2cccc(Cl)c2c1=O [Compound 73]	< 100	< 100	100 to 1000	1000 to 10000	1 to 10	100 to 1000
C[C@H](NC(=O)c1c(N)nn2cccnc12)c1cc2cccc(C#CCNC(=O)[C@@H]3CCC(=O)O3)c2c(=O)n1-c1ccccc1 [Compound 157]	< 100	< 100	< 100	100 to 1000	0.1 to 1	100 to 1000
COc1ccc(-c2cnc(N)c(C(=O)N[C@@H](C)c3cc4cccc(Cl)c4c(=O)n3-c3ccccc3)n2)cc1OC [Compound 93]	100 to 1000	< 100	100 to 1000	1000 to 10000	1 to 10	1000 to 10000
C[C@H](NC(=O)c1c(N)nn2cccnc12)c1cc2cccc(C#N)c2c(=O)n1-c1ccccc1 [Compound 227]	< 100	< 100	100 to 1000	1000 to 10000	> 10	1000 to 10000
COc1cncc(-c2cccc3cc([C@H](C)NC(=O)c4c(N)nn5cccnc45)n(-c4ccccc4)c(=O)c23)c1 [Compound 119]	< 100	< 100	< 100	100 to 1000	1 to 10	> 10000
C[C@H](NC(=O)c1c(N)nn2cccnc12)c1cc2cccc(C#CCNC(=O)C3CCCCC3)c2c(=O)n1-c1ccccc1 [Compound 159]	< 100	< 100	100 to 1000	1000 to 10000	1 to 10	1000 to 10000
CC(C)Oc1cc(-c2cccc3nc([C@H](C)NC(=O)c4c(N)nn5cccnc45)n(-c4ccccc4)c(=O)c23)ccn1 [Compound 145]	< 100	< 100	1000 to 10000	1000 to 10000	> 10	1000 to 10000
C[C@H](NC(=O)c1cncc2cccnc12)c1cc2cccc(Cl)c2c(=O)n1-c1ccccc1 [Compound 45]	< 100	< 100	1000 to 10000	100 to 1000	> 10	1000 to 10000
C[C@H](NC(=O)c1c(N)nn2cccnc12)c1cc2scc(-c3cnn(C)c3)c2c(=O)n1-c1ccccc1 [Compound 209]	1000 to 10000	100 to 1000	1000 to 10000	> 10000	> 10	> 10000
C[C@H](NC(=O)c1c(N)nn2cccnc12)c1cc2cccc(N3CCOCC3)c2c(=O)n1-c1ccccc1 [Compound 184]	1000 to 10000	100 to 1000	1000 to 10000	> 10000	> 10	> 10000
C[C@H](NC(=O)c1nc(-c2cccc(NS(=O)(=O)N(C)C)c2)cnc1N)c1cc2cccc(Cl)c2c(=O)n1-c1ccccc1 [Compound 99]	< 100	< 100	< 100	100 to 1000	1 to 10	100 to 1000
CC(NC(=O)c1c(N)nn2cccnc12)c1cc2cccc(Cl)c2nc1-c1ccccc1 (stereo not drawn) [Compound 218]	< 100	< 100	1000 to 10000	1000 to 10000	> 10	1000 to 10000
CC(C)Oc1ccc(-c2cnc(N)c(C(=O)N[C@@H](C)c3cc4cccc(Cl)c4c(=O)n3-c3ccccc3)n2)cc1 [Compound 106]	> 10000	100 to 1000	1000 to 10000	> 10000	> 10	> 10000
C#Cc1cccc2cc([C@H](C)NC(=O)c3c(N)nn4cccnc34)n(-c3ccccc3)c(=O)c12 [Compound 276]	< 100	< 100	< 100	100 to 1000	0.1 to 1	100 to 1000
C[C@H](NC(=O)c1c(N)nn2cccnc12)c1cc2cccc(Cl)c2c(=O)n1C1CCCCC1 [Compound 196]	< 100	< 100	1000 to 10000	1000 to 10000	1 to 10	1000 to 10000
C[C@H](NC(=O)c1c(N)nn2cccnc12)c1cc2cccc(C#CCCN)c2c(=O)n1-c1ccccc1 [Compound 154]	100 to 1000	100 to 1000	100 to 1000	1000 to 10000	1 to 10	1000 to 10000

SMILES	IC50 (RAJI p110 δ) [nM]	IC50 (Raw264.7 p110 γ) [nM]	IC50 (PI3K γ) [nM]	IC50 (PI3K δ) [nM]	IC50 (PI3K α) [µM]	IC50 (PI3K β) [nM]
Cc1cnc(N)c(C(=O)N[C@@H](C)c2cc3cccc(Cl)c3c(=O)n2-c2ccccc2)n1 [Compound 89]	100 to 1000	100 to 1000	1000 to 10000	1000 to 10000	> 10	1000 to 10000
C[C@H](NC(=O)c1c(N)nn2cccnc12)c1cc2cccc(Cl)c2c(=O)n1C1CC1 [Compound 77]	< 100	< 100	100 to 1000	100 to 1000	0.1 to 1	< 100
C[C@H](NC(=O)c1c(N)nn2cccnc12)c1c(Br)c2cccc(Cl)c2c(=O)n1-c1ccccc1 [Compound 254]	< 100	< 100	< 100	100 to 1000	1 to 10	1000 to 10000
C[C@H](NC(=O)c1nc(-c2cn[nH]c2)cnc1N)c1cc2cccc(Cl)c2c(=O)n1-c1ccccc1 [Compound 110]	< 100	< 100	100 to 1000	1000 to 10000	1 to 10	1000 to 10000
C[C@H](NC(=O)c1nccnc1N)c1cc2cccc(Cl)c2c(=O)n1-c1ccc(F)cc1 [Compound 19]	< 100	< 100	100 to 1000	100 to 1000	> 10	100 to 1000
C[C@H](NC(=O)c1c(N)ncc2cccnc12)c1cc2cccc(Cl)c2c(=O)n1-c1ccccc1 [Compound 137]	< 100	< 100	100 to 1000	100 to 1000	1 to 10	100 to 1000
C[C@H](NC(=O)c1nc(-c2cccc(NS(C)(=O)=O)c2)cnc1N)c1cc2cccc(Cl)c2c(=O)n1C [Compound 183]	< 100	< 100	< 100	100 to 1000	0.1 to 1	< 100
C[C@H](NC(=O)c1c(N)nn2cccnc12)c1cc2cccc(F)c2c(=O)n1-c1ccccc1 [Compound 191]	< 100	< 100	< 100	100 to 1000	1 to 10	100 to 1000
COc1ccc(-c2cnc(N)c(C(=O)N[C@@H](C)c3cc4cccc(Cl)c4c(=O)n3-c3ccccc3)n2)cc1NS(C)(=O)=O [Compound 101]	< 100	< 100	< 100	1000 to 10000	0.1 to 1	100 to 1000
C[C@H](NC(=O)c1c(N)nn2cccnc12)c1cc2cccc(Cl)c2c(=O)n1CCN(C)C [Compound 242]	< 100	100 to 1000	1000 to 10000	< 100	> 10	< 100
C[C@H](NC(=O)c1cnc2cccnn12)c1cc2cccc(Cl)c2c(=O)n1-c1ccc(F)cc1 [Compound 20]	< 100	100 to 1000	1000 to 10000	1000 to 10000	1 to 10	1000 to 10000
C[C@H](NC(=O)c1c(N)nn2cccnc12)c1cc2cccc(N(C)C)c2c(=O)n1-c1ccccc1 [Compound 180]	1000 to 10000	100 to 1000	1000 to 10000	> 10000	> 10	> 10000
COc1cc(-c2cccc3cc([C@H](C)NC(=O)c4c(N)nn5ccc(C)nc45)n(-c4ccccc4)c(=O)c23)ccn1 [Compound 186]	< 100	< 100	100 to 1000	1000 to 10000	1 to 10	> 10000
C[C@H](NC(=O)c1c(N)ncc2cccnc12)c1cc2cccc(N3CCOCC3)c2c(=O)n1-c1ccccc1 [Compound 214]	< 100	< 100	100 to 1000	1000 to 10000	> 10	> 10000
C[C@H](NC(=O)c1c(N)nn2cccnc12)c1cc2cccc(Cl)c2c(=O)n1CCN(C)S(C)(=O)=O [Compound 273]	< 100	< 100	< 100	100 to 1000	0.1 to 1	100 to 1000
CC(=O)NCC#Cc1cccc2cc([C@H](C)NC(=O)c3c(N)nn4cccnc34)n(-c3ccccc3)c(=O)c12 [Compound 165]	< 100	< 100	< 100	1000 to 10000	1 to 10	1000 to 10000
